Tests used:
Phytophthora infestans = type: in vivo; details: 250 ppm spray, tomato seedling 4-leaf stage, 4th day after inoculation; untreated not less than 60%
[1] = tested on: Pseudoperonospora cubensis; assay: Controlling effect against cucumber downy mildew (spray on cucumber seedlings, 250 ppm); type: in vivo; details: 250 ppm spray, cucumber seedling 1-leaf stage, 7th day after inoculation; untreated 60 to 80%
Method: A solution of the compound in acetone was diluted with water to 250 ppm, and the solution was sprayed to the cucumber seedling (breed: Sagamihangbak, two per plastic pot having a diameter of 7.5 cm) at 1-leaf stage in an amount of 10 mL of the compound/pot. After air-drying, the pot was transferred to a moist chamber provided in the greenhouse, and inoculated by spray with a zoosporic suspension of Pseudoperonospora cubensis. On the 7th day after inoculation the infected area rate for the leaves was examined. Evaluation was carried out by the following criteria.
The infected area rate for untreated groups in the examination was 60 to 80%.

Plasmopara viticola = assay: Controlling effect against grape downy mildew (leaf disk immersion, 250 ppm); type: in vivo; details: grape leaf disk immersed 3 hours, 10th day after inoculation, untreated 60 to 70%
Method: The developed leaf of grape seedling (breed: Cabernet Sauvignon) grown in 1/2000 a pot was cut and prepared a leaf disk having a diameter of 32 mm. A solution of the compound in acetone was diluted with water to 250 ppm, and the leaf disk was immersed for 3 hours. The disk was taken from the agent solution, subjected to air-drying, and then inoculated by spray with a zoosporangia suspension of Plasmopara viticola. The test disk was incubated at 18° C. for 12 hours in a light-dark light cycle. On the 10th day after inoculation the infected area rate for the leaf disk was examined. Evaluation was carried out by the following criteria. The infected area rate for the untreated groups in the examination was 60 to 70%.

Pyricularia oryzae = type: in vivo; details: 250 ppm spray, rice plant 4-leaf stage, 7th to 10th days after inoculation; untreated not less than 60

CC(C)[C@@H](CNC(=O)c1cc2ccccc2o1)NC(=O)C(C)(C)NC(=O)OC(C)(C)C
melting point: 140.5 °C

Cc1ccc(C(=O)NC[C@@H](NC(=O)Oc2ccccc2)C(C)C)cc1 [Comparative Compound, reference compound]
Effect: controlling effect against tomato late blight (infected area rate) (Phytophthora infestans): C (Infected area rate of not less than 50%) | Effect: controlling effect against cucumber downy mildew (infected area rate) [1]: C (the infected area rate of not less than 50%) | Effect: controlling effect against grape downy mildew (infected area rate) (Plasmopara viticola): C (the infected area rate of not less than 50%) | Effect: controlling effect against rice blast disease (number of lesions per pot) (Pyricularia oryzae): A (The number of lesions of less than 5)

C#CC[C@H](NC(=O)OCC(C)C)C(=O)N[C@H](CNC(=O)c1ccc(C)cc1)C(C)C [Compound No. 76, N-[2-methyl-1-(S)-[[(4-methylbenzoyl)amino]methyl]propyl]2-(S)-[(2-methylpropyloxycarbonyl)amino]-4-pentynamide]
Effect: controlling effect against tomato late blight (infected area rate) (Phytophthora infestans): A (Infected area rate of less than 5%) | melting point: 215.1 °C

CC(C)OC(=O)N[C@H](C(=O)N[C@H](CNC(=O)c1ccccc1Cl)C(C)C)C(C)C [Compound No. 196, N-[1-(S)-[[(2-chlorobenzoyl)amino]methyl]-2-methylpropyl]3-methyl-2-(S)-[(1-methylethyloxycarbonyl)amino]butyramide]
Effect: controlling effect against tomato late blight (infected area rate) (Phytophthora infestans): A (Infected area rate of less than 5%) | Effect: controlling effect against cucumber downy mildew (infected area rate) [1]: B (the infected area rate of 5% to less than 50%) | melting point: 196.8 °C

CC(C)OC(=O)N[C@@H](C)C(=O)N[C@H](CNC(=O)c1cc2ccccc2o1)C(C)C [Compound No. 599, N-[1-(S)-[[(benzofuran-2-carbonyl)amino]methyl]-2-methylpropyl]2-(S)-[(1-methylethyloxycarbonyl)amino]propionamide]
Effect: controlling effect against tomato late blight (infected area rate) (Phytophthora infestans): A (Infected area rate of less than 5%) | Effect: controlling effect against cucumber downy mildew (infected area rate) [1]: A (the infected area rate of less than 5%) | Effect: controlling effect against grape downy mildew (infected area rate) (Plasmopara viticola): A (the infected area rate of less than 5%) | melting point: 146.4 °C

CC(C)[C@@H](CNC(=O)c1cc2ccccc2o1)NC(=O)[C@H](C)NC(=O)OC(C)(C)C [Compound No. 601, N-[1-(S)-[[(benzofuran-2-carbonyl)amino]methyl]-2-methylpropyl]2-(S)-[(1,1-dimethylethyloxycarbonyl)amino]propionamide]
Effect: controlling effect against tomato late blight (infected area rate) (Phytophthora infestans): B (Infected area rate of 5% to less than 50%) | Effect: controlling effect against cucumber downy mildew (infected area rate) [1]: A (the infected area rate of less than 5%) | Effect: controlling effect against grape downy mildew (infected area rate) (Plasmopara viticola): B (the infected area rate of 5% to less than 50%) | melting point: 163.1 °C

CC[C@H](C)[C@@H](CNC(=O)c1ccc2ccccc2n1)NC(=O)[C@@H](NC(=O)OC)C(C)C [Compound No. 698, N-[1-(S)-[[(quinoline-2-carbonyl)amino]methyl]-2-(S)-methylbutyl]2-(S)-(methyloxycarbonylamino)-3-methylbutyramide]
Effect: controlling effect against tomato late blight (infected area rate) (Phytophthora infestans): A (Infected area rate of less than 5%) | Effect: controlling effect against cucumber downy mildew (infected area rate) [1]: A (the infected area rate of less than 5%) | Effect: controlling effect against grape downy mildew (infected area rate) (Plasmopara viticola): B (the infected area rate of 5% to less than 50%) | melting point: 174.6 °C

C=COC(=O)N[C@H](C(=O)N[C@H](CNC(=O)c1cc2ccccc2o1)C(C)C)C(C)C [Compound No. 782, N-[1-(S)-[[(benzofuran-2-carbonyl)amino]methyl]-2-methylpropyl]3-methyl-2-(S)-[(vinyloxycarbonyl)amino]butyramide]
Effect: controlling effect against tomato late blight (infected area rate) (Phytophthora infestans): A (Infected area rate of less than 5%) | Effect: controlling effect against cucumber downy mildew (infected area rate) [1]: A (the infected area rate of less than 5%) | Effect: controlling effect against grape downy mildew (infected area rate) (Plasmopara viticola): A (the infected area rate of less than 5%) | melting point: 192.7 °C

CCSC(=O)N[C@H](C(=O)N[C@H](CNC(=O)c1cc2ccccc2o1)C(C)C)C(C)C [Compound No. 793, N-[1-(S)-[[(benzofuran-2-carbonyl)amino]methyl]-2-methylpropyl][3-methyl-2-(S)-(ethylthiocarbonylamino)]butyramide]
Effect: controlling effect against tomato late blight (infected area rate) (Phytophthora infestans): A (Infected area rate of less than 5%) | Effect: controlling effect against cucumber downy mildew (infected area rate) [1]: A (the infected area rate of less than 5%) | Effect: controlling effect against grape downy mildew (infected area rate) (Plasmopara viticola): A (the infected area rate of less than 5%)

CC(C)OC(=O)N[C@H](C(=O)N[C@H](CNC(=O)c1cccc2onnc12)C(C)C)C(C)C [Compound No. 929, N-[1-(S)-[(benzoxadiazol-4-yl)carbonylaminomethyl]-2-methylpropyl]3-methyl-2-(S)-[(1-methylethyl)oxycarbonylamino]butyramide]
Effect: controlling effect against tomato late blight (infected area rate) (Phytophthora infestans): A (Infected area rate of less than 5%) | Effect: controlling effect against cucumber downy mildew (infected area rate) [1]: A (the infected area rate of less than 5%) | Effect: controlling effect against grape downy mildew (infected area rate) (Plasmopara viticola): B (the infected area rate of 5% to less than 50%) | melting point: 242.9 °C

CC(C)OC(=O)N[C@H](C(=O)N[C@H](CNC(=O)c1cccc(Cl)n1)C(C)C)C(C)C [Compound No. 953, N-[1-(S)-[[(6-chloropyridine-2-carbonyl)amino]methyl]-2-methylpropyl]3-methyl-2-(S)-[(1-methylethyloxycarbonyl)amino]butyramide]
Effect: controlling effect against tomato late blight (infected area rate) (Phytophthora infestans): A (Infected area rate of less than 5%) | Effect: controlling effect against cucumber downy mildew (infected area rate) [1]: A (the infected area rate of less than 5%) | Effect: controlling effect against grape downy mildew (infected area rate) (Plasmopara viticola): A (the infected area rate of less than 5%) | melting point: 204.9 °C

CC(C)COC(=O)N[C@H](C(=O)N[C@H](CNC(=O)c1cccs1)C(C)C)C(C)C [Compound No. 1020, N-[1-(S)-[[(thiophene-2-carbonyl)amino]methyl]-2-methylpropyl]3-methyl-2-(S)-[(2-methylpropyloxycarbonyl)amino]butyramide]
Effect: controlling effect against tomato late blight (infected area rate) (Phytophthora infestans): B (Infected area rate of 5% to less than 50%) | Effect: controlling effect against cucumber downy mildew (infected area rate) [1]: B (the infected area rate of 5% to less than 50%) | melting point: 204.9 °C

CCC[C@H](NC(=O)OC(C)(C)C)C(=O)N[C@H](CNC(=O)c1ccc(C)cc1)C(C)C [compound 40, N-[2-methyl-1-(S)-[[(4-methylbenzoyl)amino]methyl]propyl]2-(S)-[(1,1-dimethylethyloxycarbonyl)amino]valeramide]
Effect: controlling effect against tomato late blight (infected area rate) (Phytophthora infestans): A (Infected area rate of less than 5%) | Effect: controlling effect against cucumber downy mildew (infected area rate) [1]: A (the infected area rate of less than 5%) | Effect: controlling effect against grape downy mildew (infected area rate) (Plasmopara viticola): A (the infected area rate of less than 5%)

From patent publication US20070244153A1 (priority 2004, published 2007)
